The values that follow come from patent US7078225B2, “Method for enzymatically producing an optically active cyanohydrin” (Nippon Shokubai Co., Ltd., priority 2000, dated 2006).

The test system of the test is (R)-hydroxynitrile lyase. Put plainly: Effect of reaction inhibitor in the aldehyde on enzymatic synthesis of (R)-2-chloromandelonitrile (conversion by HPLC after five hours). The test is classed as biochemical, almond (Prunus amygdalus). As to conditions: 1 M aldehyde, 1.5 M prussic acid, immobilized enzyme 600 units, t-butyl methyl ether saturated with citrate buffer pH 5.5, five hours. The protocol:
2-chlorobenzaldehyde containing undetectable 2-chlorobenzoic acid (reaction inhibitor) was dissolved in t-butyl methyl ether saturated with 0.15 M citrate buffer (pH 5.5) to prepare a 1 M solution of 2-chlorobenzaldehyde. To this solution, 2-chlorobenzoic acid was added in different amounts to prepare aldehyde solutions of varying 2-chlorobenzoic acid contents.
Immobilized (R)-hydroxynitrile lyase (600 units) was introduced into 5 mil of each solution, and prussic acid was then added to reach 1.5 M, followed by synthesis of (R)-2-chloromandelonitrile. Five hours after initiation of the reaction, an aliquot of the reaction mixture was sampled to measure the conversion ratio of aldehyde by HPLC.

In the case of `O=C(O)c1ccccc1Cl` [2-chlorobenzoic acid], the “inhibition of the enzyme reaction” value runs as follows: (0.5 wt % 2-chlorobenzoic acid added to 2-chlorobenzaldehyde) “about 30%”; (1.1 wt % 2-chlorobenzoic acid added to 2-chlorobenzaldehyde) “about 50%”.
